Source: patent US6670363B1, “Azole compounds as therapeutic agents for fungal infections” (Ranbaxy Laboratories Limited, priority 2000, dated 2003)
Converted amounts (≈) assume the structure as drawn.

How the values were obtained:
Type in all cases: cell-based
[1] = tested on: A. fumigatus s 1008; test: In vitro MIC, NCCLS M38P broth method (RPMI 1640/MOPS pH7), Aspergillus fumigatus
[2] = tested on: Candida; test: In vitro MIC, NCCLS M27A, Candida species; parameters: MIC, Candida albicans 1.549 / MIC, Candida albicans Y-01-19 / MIC, C. krusei 766-1 / MIC, C. krusei Q. C / MIC, Candida tropicalis ATCC / MIC, C. glabrata 90030: unit not given beside the values; MIC, Candida albicans A 26 / MIC, C. parapsilosis Q. C.: unit not given here; settings: for MIC, C. glabrata 90030: C. glabrata strain 90030; for MIC, C. krusei 766-1: C. krusei strain 766-1; for MIC, C. krusei Q. C: C. krusei strain Q. C; for MIC, C. parapsilosis Q. C.: C. parapsilosis strain Q. C.; for MIC, Candida albicans 1.549: Candida albicans strain 1.549; for MIC, Candida albicans A 26: Candida albicans strain A 26; for MIC, Candida albicans Y-01-19: Candida albicans strain Y-01-19
[3] = tested on: Cryptococcus neoformans; test: In vitro MIC, NCCLS M27A, Cryptococcus neoformans; parameters: MIC, C. neoformans I: unit not given beside the values; MIC, C. neoformans M 106: unit not given here; settings: for MIC, C. neoformans I: C. neoformans strain I; for MIC, C. neoformans M 106: C. neoformans strain M 106
[4] = tested on: Histoplasma capsulatum

`C[C@@H](n1ncn(-c2ccc(N3CCN(c4ccc(Cl)c(Cl)c4)CC3)cc2)c1=O)[C@](O)(Cn1cncn1)c1ccc(F)cc1F` [Compound 7, 2-{[1R2R/1S2S]-2-(2,4-Difluorophenyl)-2-hydroxy-1-methyl-3-(1H-1,2,4-triazol-1-yl)propyl}-4-{4-[4-(3,4-dichlorophenyl)-1-piperzinyl]phenyl}-3-(2H,4H)-1,2,4-triazolone] was tested, and the “MIC, A. fumigatus 1008” value ([1]; A. fumigatus strain 1008) was 0.25, the “MIC, C. glabrata 90030” value [2] was 0.12 and the “MIC, C. krusei 766-1” value [2] was 0.25. For the same compound, the “MIC, C. krusei Q. C” value [2] was 0.12, the “MIC, C. parapsilosis Q. C.” value [2] was under 0.03 and the “MIC, Candida albicans 1.549” value [2] was 0.25. For the same compound, the “MIC, Candida albicans A 26” value [2] was under 0.03, the “MIC, Candida albicans Y-01-19” value [2] was 0.12 and the “MIC, Candida tropicalis ATCC” value [2] was under 0.03. For the same compound, the “MIC, C. neoformans I” value [3] was under 0.03, the “MIC, C. neoformans M 106” value [3] was under 0.03 and the MIC, H. capsulatum [4] was 0.12 µg/mL (≈ 0.187 µM).
For `O=C(Nc1ccc(Cl)cc1Cl)NN1CCN(c2ccc(OCC(O)(Cn3cncn3)c3ccc(F)cc3F)cc2)CC1` (stereo not drawn) [Compound 72, 3-{4-[4-(2,4-Dichlorophenylureido)piperazinyl]phenoxy}-2-(2,4-difluorophenyl)-1-(1H-1,2,4-triazol-1-yl)-propan-2-ol], the “MIC (υg/ml) (A. fumigatus s 1008)” value [1] was over 12.5 µg/mL.
`O=C(Nc1cccc2ccccc12)NN1CCN(c2ccc(OCC(O)(Cn3cncn3)c3ccc(F)cc3F)cc2)CC1` (stereo not drawn) [Compound 69, 3-{4-[4-(1-Napthylureido)piperazinyl]phenoxy}-2-(2,4-difluorophenyl)-1-(1H-1,2,4-triazol-1-yl)-propan-2-ol] was tested, and the “MIC (υg/ml) (A. fumigatus s 1008)” value [1] was over 12.5 µg/mL.
For `C[C@@H](Oc1ccc(N2CCN(NC(=O)Nc3ccc(Cl)cc3)CC2)cc1)[C@](O)(Cn1cncn1)c1ccc(F)cc1F` [Compound 77, [1R2R/1S2S] 1-{4-[4-(4-Chlorophenylureido)-piperazinyl]-phenoxy}-2-(2,4-difluorophenyl)-1-methyl-3-(1H-1,2,4-triazolyl)-propan-2-ol], the “MIC (υg/ml) (A. fumigatus s 1008)” value [1] was 2 µg/mL (≈ 3.34 µM).
In the case of `O=C(Nc1ccc(Cl)cc1)NN1CCN(c2ccc(-n3cnn(CC(O)(Cn4cncn4)c4ccc(F)cc4F)c3=O)cc2)CC1` (stereo not drawn) [Compound 91, 2-[2-(2,4-Difluorophenyl)-2-hydroxy-3-(1H-1,2,4-triazol-1-yl)propyl]-4-{4-[4-(4-chlorophenyluredio)-1-piperazinyl]phenyl}-3-(2H,4H)-1,2,4-triazolone], the “MIC (υg/ml) (A. fumigatus s 1008)” value [1] is reported as over 12.5 µg/mL.
With `CN(CC(O)(Cn1cncn1)c1ccc(F)cc1F)c1ccc(NC(=O)Nc2ccc(Cl)cc2)cc1` (stereo not drawn) [Compound 86, 3-{N-[4-(p-Chlorophenylureido)-phenyl]-N-methyl}-2-(2,4-difluorophenyl)-1-(1H-1,2,4-triazolyl)-propan-3-amino-2-ol] the “MIC (υg/ml) (A. fumigatus s 1008)” value [1] was over 12.5 µg/mL.
With `OC(COc1ccc(N2CCN(NC(=S)Nc3cccc4ccccc34)CC2)cc1)(Cn1cncn1)c1ccc(F)cc1F` (stereo not drawn) [Compound 68, 3-{4-[4-(1-Napthylthioureido)piperazinyl]phenoxy}-2-(2,4-difluorophenyl)-1-(1H-1,2,4-triazol-1-yl)-propan-2-ol] the “MIC (υg/ml) (A. fumigatus s 1008)” value [1] was over 12.5 µg/mL.
`CC(Oc1ccc(N2CCN(NC(=O)Nc3ccc(Cl)cc3)CC2)cc1)C(O)(Cn1cncn1)c1ccc(F)cc1F` (stereo not drawn) [Compound 78, [1R2S/1S2R] 1-{4-[4-(4-Chlorophenylureido)-piperazinyl]-phenoxy}2-(2,4-difluorophenyl)-1-methyl-3-(1H-1,2,4-triazolyl)-propan-2-ol] was tested, and the “MIC (υg/ml) (A. fumigatus s 1008)” value [1] was 0.5 µg/mL (≈ 0.836 µM).
`CC(C)NC(=S)NN1CCN(c2ccc(-n3cnn(CC(O)(Cn4cncn4)c4ccc(F)cc4F)c3=O)cc2)CC1` (stereo not drawn) [Compound 90, 2-[2-(2,4-Difluorophenyl)-2-hydroxy-3-(1H-1,2,4-triazol-1-yl)propyl]-4-{4-[4-(isopropylthiouredio)-1-piperazinyl]phenyl}-3-(2H,4H)-1,2,4-triazolone] was tested, and the “MIC (υg/ml) (A. fumigatus s 1008)” value [1] was over 12.5 µg/mL.
With `CN(CC(O)(Cn1cncn1)c1ccc(F)cc1F)c1ccc(NC(=O)Nc2ccc(NC(=S)Nc3ccc(Cl)cc3)cc2)cc1` (stereo not drawn) [Compound 89, 3-{N-[4-((p-Chlorophenylthioureido)-phenylureido)-phenyl]-N-methyl}-2-(2,4-difluorophenyl)-1-(1H-1,2,4-triazolyl)-propan-3-amino-2-ol] the “MIC (υg/ml) (A. fumigatus s 1008)” value [1] was over 12.5 µg/mL.
In the case of `Cc1nn([C@H](C)[C@@](O)(Cn2cncn2)c2ccc(F)cc2F)c(=O)n1-c1ccc(N2CCN(c3ccc(Cl)cc3Cl)CC2)cc1` [Compound 34, 2-{[1R2S/1S2R]-2-(2,4-Difluorophenyl)-2-hydroxy-1-methyl-3-(1H-1,2,4-triazol-1-yl)propyl}-4-{4-[4-(2,4-dichlorophenyl)-1-piperazinyl]phenyl}-3-(2H,4H)-5-methyl-1,2,4-triazolone], the “MIC, C. glabrata 90030” value [2] is reported as 0.50, the “MIC, C. krusei 766-1” value [2] is reported as 2.00 and the “MIC, C. krusei Q. C” value [2] is reported as 1.00. For the same compound, the “MIC, C. parapsilosis Q. C.” value [2] was 0.25, the “MIC, Candida albicans 1.549” value [2] was 1.00 and the “MIC, Candida albicans A 26” value [2] was under 0.03. The “MIC, Candida albicans Y-01-19” value [2] was 1.00, the “MIC, Candida tropicalis ATCC” value [2] was under 0.03 and the “MIC, C. neoformans I” value [3] was 0.25. The “MIC, C. neoformans M 106” value [3] was under 0.03 and the MIC, H. capsulatum [4] was 0.12 µg/mL (≈ 0.183 µM).
For `O=c1n(-c2ccc(N3CCN(NC(=S)Nc4ccc(Cl)cc4)CC3)cc2)cnn1CC(O)(Cn1cncn1)c1ccc(F)cc1F` (stereo not drawn) [Compound 92, 2-[2-(2,4-Difluorophenyl)-2-hydroxy-3-(1H-1,2,4-triazol-1-yl)propyl]-4-{4-[4-(4-chlorophenylthiouredio)-1-piperazinyl]phenyl}-3-(2H,4H)-1,2,4-triazolone], the “MIC (υg/ml) (A. fumigatus s 1008)” value [1] was over 12.5 µg/mL.
In the case of `Cc1ccc(NC(=S)NN2CCN(c3ccc(OCC(O)(Cn4cncn4)c4ccc(F)cc4F)cc3)CC2)cc1` (stereo not drawn) [Compound 64, 3-{4-[4-(p-Tolylthioureido)piperazinyl]phenoxy}-2-(2,4-difluorophenyl)-1-(1H-1,2,4-trizol-1-yl)-propan-2-ol], the “MIC (υg/ml) (A. fumigatus s 1008)” value [1] is reported as 3.12 µg/mL (≈ 5.38 µM).
In the case of `CN(CC(O)(Cn1cncn1)c1ccc(F)cc1F)c1ccc(NC(=O)Nc2ccc([N+](=O)[O-])cc2)cc1` (stereo not drawn) [Compound 85, 3-{N-[4-(p-nitrophenylureido)-phenyl]-N-methyl}-2-(2,4-Difluorophenyl)-1-(1H-1,2,4-triazolyl)-propan-3-amino-2-ol], the “MIC (υg/ml) (A. fumigatus s 1008)” value [1] is reported as over 12.5 µg/mL.
`COc1ccc(NC(=O)NN2CCN(c3ccc(OCC(O)(Cn4cncn4)c4ccc(F)cc4F)cc3)CC2)cc1` (stereo not drawn) [Compound 71, 3-{4-[4-(4-Methoxyphenylureido)piperazinyl]phenoxy}-2-(2,4-difluorophenyl)-1-(1H-1,2,4-triazol-1-yl)-propan-2-ol] was tested, and the “MIC (υg/ml) (A. fumigatus s 1008)” value [1] was over 12.5 µg/mL.
For `OC(COc1ccc(N2CCN(NC(=S)Nc3ccc(Cl)cc3)CC2)cc1)(Cn1cncn1)c1ccc(F)cc1F` (stereo not drawn) [Compound 66, 3-{4-[4-(4-Chlorophenylthioureido)piperazinyl]phenoxy}-2-(2,4-difluorophenyl)-1-(1H-1,2,4-triazol-1-yl)-propan-2-ol], the “MIC (υg/ml) (A. fumigatus s 1008)” value [1] was over 12.5 µg/mL.
With `CN(CC(O)(Cn1cncn1)c1ccc(F)cc1F)c1ccc(NC(=O)Nc2ccc(F)cc2)cc1` (stereo not drawn) [Compound 84, 3-{N-[4-(p-Fluorophenylureido)-phenyl]-N-methyl}-2-(2,4-difluorophenyl)-1-(1H-1,2,4-triazolyl)-propan-3-amino-2-ol] the “MIC (υg/ml) (A. fumigatus s 1008)” value [1] was over 12.5 µg/mL.
With `Nc1ccc(NC(=O)NN2CCN(c3ccc(OCC(O)(Cn4cncn4)c4ccc(F)cc4F)cc3)CC2)cc1` (stereo not drawn) [Compound 76, 3-{4-[4-(4-Aminophenylureido)piperazinyl]phenoxy}-2-(2,4-difluorophenyl)-1-(1H-1,2,4-triazol-1-yl)-propan-2-ol] the “MIC (υg/ml) (A. fumigatus s 1008)” value [1] was over 12.5 µg/mL.
